Here are results for seven molecules from article PMC12951562, “SH2scan: Mapping SH2 Domain-Ligand Binding Selectivity for Inhibitors and Degraders” (Journal of Medicinal Chemistry, 2026).

Common to all, as to test: biochemical
Type in all cases: binding

For one assay, the target named is T1, RASA1(SH2dom.N-term.) (Homo sapiens, UniProt P20936).
T1 construct: SH2dom.N-term. denotes SH2 domain closest to N-terminus of protein; made in house; host or cells: HEK293 (transient transfection), unpurified extract
T1 sequence (P20936 181-272 limits assumed): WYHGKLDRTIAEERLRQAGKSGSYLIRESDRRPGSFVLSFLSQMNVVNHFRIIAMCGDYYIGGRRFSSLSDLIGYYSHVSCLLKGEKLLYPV

The next assay deals with T2, SOCS2 (Homo sapiens, UniProt O14508).
T2 construct: made in house; host or cells: HEK293 (transient transfection), unpurified extract
T2 sequence (O14508 1-198): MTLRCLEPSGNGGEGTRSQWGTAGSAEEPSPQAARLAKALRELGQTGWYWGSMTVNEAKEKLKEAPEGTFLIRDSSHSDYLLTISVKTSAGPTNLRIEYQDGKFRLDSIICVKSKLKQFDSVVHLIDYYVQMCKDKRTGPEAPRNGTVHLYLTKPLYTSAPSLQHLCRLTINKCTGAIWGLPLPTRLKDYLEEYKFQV

Another assay has as its target T3, SOCS6 (Homo sapiens, UniProt O14544).
T3 construct: made in house; host or cells: HEK293 (transient transfection), unpurified extract
T3 sequence (O14544 1-535): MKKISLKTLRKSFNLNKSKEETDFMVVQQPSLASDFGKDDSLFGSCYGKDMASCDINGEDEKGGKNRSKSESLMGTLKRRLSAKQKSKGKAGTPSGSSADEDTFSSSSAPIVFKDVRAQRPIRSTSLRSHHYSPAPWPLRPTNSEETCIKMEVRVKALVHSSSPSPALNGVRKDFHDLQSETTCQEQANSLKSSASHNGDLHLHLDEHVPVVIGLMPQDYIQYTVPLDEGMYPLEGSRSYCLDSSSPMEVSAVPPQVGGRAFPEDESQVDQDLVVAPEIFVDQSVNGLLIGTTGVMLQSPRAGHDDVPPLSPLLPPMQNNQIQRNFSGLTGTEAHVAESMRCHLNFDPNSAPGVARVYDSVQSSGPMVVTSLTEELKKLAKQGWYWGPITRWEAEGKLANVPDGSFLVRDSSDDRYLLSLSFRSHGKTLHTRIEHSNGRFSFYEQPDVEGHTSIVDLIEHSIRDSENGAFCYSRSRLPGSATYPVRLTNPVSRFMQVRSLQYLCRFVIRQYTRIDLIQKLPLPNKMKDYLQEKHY

Another assay deals with T4, SOCS7 (Homo sapiens, UniProt O14512).
T4 construct: made in house; host or cells: HEK293 (transient transfection), unpurified extract
T4 sequence (O14512 1-581): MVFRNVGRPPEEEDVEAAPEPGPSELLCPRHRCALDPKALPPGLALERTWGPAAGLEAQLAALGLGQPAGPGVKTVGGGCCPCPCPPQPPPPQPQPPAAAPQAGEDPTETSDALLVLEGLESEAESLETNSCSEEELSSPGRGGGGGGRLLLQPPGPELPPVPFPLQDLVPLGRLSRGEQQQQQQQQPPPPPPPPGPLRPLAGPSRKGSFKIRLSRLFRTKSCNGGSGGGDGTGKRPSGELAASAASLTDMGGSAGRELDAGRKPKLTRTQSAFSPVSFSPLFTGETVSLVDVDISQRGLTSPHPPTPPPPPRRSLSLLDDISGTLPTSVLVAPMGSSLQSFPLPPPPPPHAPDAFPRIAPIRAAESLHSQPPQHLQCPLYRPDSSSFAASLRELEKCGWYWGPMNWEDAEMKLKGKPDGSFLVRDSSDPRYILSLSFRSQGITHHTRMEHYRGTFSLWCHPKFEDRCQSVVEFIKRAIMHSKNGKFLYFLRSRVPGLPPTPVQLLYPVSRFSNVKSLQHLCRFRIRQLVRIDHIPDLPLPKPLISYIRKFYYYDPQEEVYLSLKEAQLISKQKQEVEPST

Another assay has as its target T5, SH2B (SH2B1) (Homo sapiens, UniProt Q9NRF2).
T5 construct: made in house; host or cells: HEK293 (transient transfection), unpurified extract

In another assay the target is T6, SHB (Homo sapiens, UniProt Q15464).
T6 construct: made in house; host or cells: HEK293 (transient transfection), unpurified extract
T6 sequence (Q15464 whole entry): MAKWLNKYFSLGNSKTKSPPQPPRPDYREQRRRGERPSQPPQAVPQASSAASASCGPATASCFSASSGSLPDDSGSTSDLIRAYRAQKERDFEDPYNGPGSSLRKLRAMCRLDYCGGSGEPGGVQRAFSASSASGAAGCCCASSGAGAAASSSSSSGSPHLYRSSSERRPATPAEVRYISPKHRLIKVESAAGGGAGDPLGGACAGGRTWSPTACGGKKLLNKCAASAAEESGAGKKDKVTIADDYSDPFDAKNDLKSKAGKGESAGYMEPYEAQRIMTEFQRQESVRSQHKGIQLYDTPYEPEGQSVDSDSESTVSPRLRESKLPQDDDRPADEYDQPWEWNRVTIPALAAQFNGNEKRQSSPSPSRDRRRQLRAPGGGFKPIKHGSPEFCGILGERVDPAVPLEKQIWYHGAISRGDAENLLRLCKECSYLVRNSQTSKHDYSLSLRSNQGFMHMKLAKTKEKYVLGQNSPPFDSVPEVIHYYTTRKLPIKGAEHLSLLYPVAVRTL

The target of a further assay is T7, FGR (Homo sapiens, UniProt P09769).
T7 construct: the DNA-tagged SH2 domain concentrations used in this study were <0.1 nM; made in house; host or cells: HEK293 (transient transfection; unpurified extract)
T7 sequence (P09769 144-241 limits assumed): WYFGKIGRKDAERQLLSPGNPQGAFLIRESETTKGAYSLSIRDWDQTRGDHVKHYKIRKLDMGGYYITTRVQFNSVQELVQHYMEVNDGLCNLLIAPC

Another assay deals with T8, LYN (Homo sapiens, UniProt P07948).
T8 construct: the DNA-tagged SH2 domain concentrations used in this study were <0.1 nM; made in house; host or cells: HEK293 (transient transfection, unpurified extract)
T8 sequence (P07948 129-226 limits assumed): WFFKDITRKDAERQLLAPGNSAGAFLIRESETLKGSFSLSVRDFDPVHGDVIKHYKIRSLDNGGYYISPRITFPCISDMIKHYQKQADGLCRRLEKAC

Another assay deals with T9, MATK (Homo sapiens, UniProt P42679).
T9 construct: the DNA-tagged SH2 domain concentrations used in this study were <0.1 nM; made in house; host or cells: HEK293 (transient transfection, unpurified extract)
T9 sequence (P42679 122-211 limits assumed): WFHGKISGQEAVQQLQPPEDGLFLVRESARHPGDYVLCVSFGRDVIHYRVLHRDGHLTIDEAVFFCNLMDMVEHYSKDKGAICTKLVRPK

The next assay addresses T10, HCK (Homo sapiens, UniProt P08631).
T10 construct: the DNA-tagged SH2 domain concentrations used in this study were <0.1 nM; made in house; host or cells: HEK293 (transient transfection, unpurified extract)

The target of a further assay is T11, LCK (Homo sapiens, UniProt P06239).
T11 construct: the DNA-tagged SH2 domain concentrations used in this study were <0.1 nM; made in house; host or cells: HEK293 (transient transfection, unpurified extract)
T11 sequence (P06239 127-224 limits assumed): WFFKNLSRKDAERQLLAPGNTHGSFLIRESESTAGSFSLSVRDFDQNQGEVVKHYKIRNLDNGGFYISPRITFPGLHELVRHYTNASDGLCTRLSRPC

For the next assay, the target named is T12, SRC (Homo sapiens, UniProt P12931).
T12 construct: made in house; host or cells: HEK293 (transient transfection), unpurified extract
T12 sequence (P12931 whole entry): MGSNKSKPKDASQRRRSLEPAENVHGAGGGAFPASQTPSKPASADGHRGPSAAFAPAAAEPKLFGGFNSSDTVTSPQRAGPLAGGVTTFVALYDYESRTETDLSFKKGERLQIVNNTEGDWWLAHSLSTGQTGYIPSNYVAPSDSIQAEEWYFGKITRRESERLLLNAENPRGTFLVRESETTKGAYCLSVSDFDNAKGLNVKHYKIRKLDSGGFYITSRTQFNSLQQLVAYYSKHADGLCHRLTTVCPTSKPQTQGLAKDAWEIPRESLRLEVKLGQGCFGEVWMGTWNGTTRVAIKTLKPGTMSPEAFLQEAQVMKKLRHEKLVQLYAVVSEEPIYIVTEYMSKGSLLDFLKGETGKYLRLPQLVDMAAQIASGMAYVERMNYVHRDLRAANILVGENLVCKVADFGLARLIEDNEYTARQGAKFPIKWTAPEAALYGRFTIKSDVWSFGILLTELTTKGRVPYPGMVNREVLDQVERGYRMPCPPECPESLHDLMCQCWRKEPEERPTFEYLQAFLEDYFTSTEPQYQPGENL

The target of another assay is T13, SH2D1B (Homo sapiens, UniProt O14796).
T13 construct: made in house; host or cells: HEK293 (transient transfection), unpurified extract
T13 sequence (O14796 1-132): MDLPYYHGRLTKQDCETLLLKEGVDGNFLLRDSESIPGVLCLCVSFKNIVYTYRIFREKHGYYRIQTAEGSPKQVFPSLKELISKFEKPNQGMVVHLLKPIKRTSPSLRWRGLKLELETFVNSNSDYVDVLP

Non-standard residues stand in square brackets, D forms with d. Residues, ends and D or L forms follow the SMILES beside them. pY = N[C@@H](Cc1ccc(OP(=O)(O)O)cc1)C(=O)O

T10 sequence (P08631 144-241 limits assumed): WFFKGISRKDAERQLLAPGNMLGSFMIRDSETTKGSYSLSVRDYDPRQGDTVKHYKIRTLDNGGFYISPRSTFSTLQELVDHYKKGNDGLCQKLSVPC

In the case of `CC[C@H](C)[C@H](NC(=O)[C@H](CC(N)=O)NC(=O)[C@H](CCC(=O)O)NC(=O)[C@H](CCC(=O)O)NC(=O)[C@H](CCC(=O)O)NC(C)=O)C(=O)N[C@@H](Cc1ccc(OP(=O)(O)O)cc1)C(=O)N[C@@H](CO)C(=O)N[C@H](C(=O)N1CCC[C@H]1C(=O)N[C@@H](Cc1c[nH]cn1)C(=O)N[C@@H](CC(=O)O)C(=O)N[C@@H](CO)C(=O)N[C@H](C(N)=O)[C@@H](C)O)C(C)C` (Ac-EEENI[pY]SVPHDST-NH2), the Kd at RASA1(SH2dom.N-term.) worked out at 472 ± 309 nM. As to `CC[C@H](C)[C@H](NC(=O)[C@H](Cc1ccc(O)cc1)NC(=O)[C@@H](NC(=O)[C@H](Cc1ccc(OP(=O)(O)O)cc1)NC(=O)[C@H](CC(N)=O)NC(=O)[C@H](CC(N)=O)NC(=O)CNC(=O)[C@H](CC(N)=O)NC(C)=O)C(C)C)C(=O)N[C@@H](CC(=O)O)C(=O)N1CCC[C@H]1C(=O)N[C@H](C(N)=O)[C@@H](C)O` [Ac-NGNNpYVYIDPT-NH2], the Kd stood at 4200 ± 739 nM on SOCS2, 20.6 ± 4.33 nM on SOCS6 and 11700 ± 822 nM on SOCS7.

For the molecule `CC[C@H](C)[C@H](NC(=O)[C@H](CC(N)=O)NC(=O)[C@@H](NC(=O)[C@H](Cc1ccc(OP(=O)(O)O)cc1)NC(=O)[C@H](CCC(=O)O)NC(=O)CNC(=O)[C@@H]1CCCN1C(=O)[C@H](CO)NC(C)=O)C(C)C)C(=O)N[C@@H](CCC(=O)O)C(=O)N[C@@H](Cc1ccccc1)C(=O)NCC(N)=O` [Ac-SPGEpYVNIEFG-NH2], the figures for the Kd on SH2B (SH2B1) and at SHB were 4460 ± 615 nM and 6030 ± 1090 nM, respectively. As to `CC(=O)N1CCC[C@H]1C(=O)N[C@@H](CCC(=O)O)C(=O)NCC(=O)N[C@@H](CC(=O)O)C(=O)N[C@@H](Cc1ccc(OP(=O)(O)O)cc1)C(=O)N[C@@H](CCC(=O)O)C(=O)N[C@@H](CCC(=O)O)C(=O)N[C@H](C(=O)N[C@@H](CC(C)C)C(=O)N[C@@H](CCC(=O)O)C(N)=O)C(C)C` [Ac-PEGDpYEEVLE-NH2] (Ac-PEGD[pY]EEVLE-NH2), the Kd came out at 1820 ± 510 nM at FGR and 765 ± 141 nM on LYN.

As for `CC[C@H](C)[C@H](NC(=O)[C@H](CS)NC(=O)[C@H](CCCNC(=N)N)NC(C)=O)C(=O)N[C@@H](CC(N)=O)C(=O)N[C@@H](Cc1ccc(OP(=O)(O)O)cc1)C(=O)N[C@H](C(=O)N[C@@H](Cc1ccccc1)C(=O)N[C@@H](Cc1ccccc1)C(=O)N1CCC[C@H]1C(=O)N[C@@H](CO)C(=O)N[C@@H](CC(C)C)C(=O)N[C@@H](CCCCN)C(=O)N1CCC[C@H]1C(=O)N[C@@H](CO)C(=O)N[C@@H](CO)C(N)=O)C(C)C`, binding on MATK was characterised by a dissociation constant (Kd) of 555 ± 128 nM. As to `CC[C@H](C)[C@H](NC(=O)[C@@H]1CCCN1C(=O)[C@@H](NC(=O)[C@H](CCC(=O)O)NC(=O)[C@H](CCC(=O)O)NC(=O)[C@H](Cc1ccc(OP(=O)(O)O)cc1)NC(=O)[C@H](CCC(N)=O)NC(=O)[C@@H]1CCCN1C(=O)[C@H](CCC(=O)O)NC(C)=O)[C@@H](C)CC)C(=O)N[C@@H](Cc1ccc(O)cc1)C(=O)N[C@@H](CC(C)C)C(N)=O` (Ac-EPQ[pY]EEIPIYL-NH2), the Kd turned out to be 1440 ± 475 nM on HCK, 97 ± 51.6 nM at LCK and 2710 ± 1950 nM at SRC. As for `CC[C@H](C)[C@H](NC(=O)[C@@H](NC(=O)[C@H](CC(C)C)NC(=O)[C@H](CO)NC(=O)[C@H](CCCCN)NC(C)=O)[C@@H](C)O)C(=O)N[C@@H](Cc1ccc(OP(=O)(O)O)cc1)C(=O)N[C@@H](C)C(=O)N[C@@H](CCC(N)=O)C(=O)N[C@H](C(=O)N[C@@H](CCC(N)=O)C(=O)N[C@@H](CCCCN)C(N)=O)C(C)C` [Ac-KSLTIpYAQVQK-NH2] (Ac-KSLTI[pY]AQVQK-NH2), binding at SH2D1B was put at a Kd of 0.14 ± 0.03 nM.
